According to patent publication US10888500B2, “Particle size stabilization process” (INKE, S.A., priority 2016, dated 2021):

Experiments:
[1] = Amorphous content by Dynamic Vapor Sorption Analysis (DVS), water uptake method; assay type: physicochemical; settings: after the curing step
Method: Dynamic Vapor Sorption Analysis (DVS):
The experiments were performed in a Mettler Toledo TGA/DSC 1 LF instrument equipped with a LF SDTA FRS2 sensor and coupled with a Modular Humidity Generator MHG 32. The samples were weighted into 150 μL platinum crucibles. Data collection and evaluation was done with STARe software. A water uptake method was used to determine the amorphous content. In this method, the relative mass difference at a specific relative humidity (20%) prior to and post humidity-induced crystallization was compared. Assuming no solvate or hydrate formation, the difference in uptake between partially amorphous and recrystallized material is directly proportional to the initial amount of amorphous material in the sample. A purely amorphous sample (reference sample) was used as amorphous standard. The water uptake of a sample is proportional to the amount of amorphous content present in the sample.

[2] = Determination of presence of aggregates / agglomerated material (Malvern); assay type: physicochemical; settings: after the curing step
Source text: (§1) Determination of Presence of Aggregates (MALVERN).

[3] = for D50 determined by LDS after curing / D90 determined by LDS after curing: after curing at 130° C., storage at 25° C. for (at least) 1 month
Method: Laser Diffraction Spectrometry (LDS) was used to determine the Particle Size Distribution (PSD) and the determination of the presence of aggregates.
Particle Size Distribution ([…]).
The particle size distribution of sample was measured by using a Helos particle size analyser using a R1 lense with an Aspiros feeder using a dispersing dry process on 50 mg of glycopyrronium salt product.
as §1
The presence of aggregates in a sample was determined by using a Malvern Mastersizer 2000 instrument. For example: 100 mg of glycopyrronium salt were mixed with 5 ml of a previously prepared saturated solution of glycopyrronium salt in n-heptane containing 0.2 wt. % of Span-20. Ultrasonic treatment of the samples was performed for 2 minutes.

[4] = between pH 1 and 14; cited from earlier work
[5] = after curing at 70° C., vacuum, 6 hours, FIG. 1: after storage at 25° C. for 1 month

Compound | amorphous content as determined by DVS [1] | agglomerated material observed [2] | D50 after the curing step (agglomerated material, FIG. 1) [3, 5] | D90 after the curing step (agglomerated material, FIG. 1) [3, 5] | amorphous content as determined by DVS (in words) [1] | D50 determined by LDS after curing [3] | D90 determined by LDS after curing [3] | ionization [4]
glycopyrronium bromide [Example 1, reference compound] | 1.8 wt. % | significant amount of agglomerated material | 60.27 μm | 888.59 μm | – | – | – | –
glycopyrronium bromide [Example 3] | – | no agglomerated material was observed | – | – | No amorphous content was detected | 1.46 μm | 3.36 μm | –
glycopyrronium bromide [Example 5] | – | no agglomerated material was observed | – | – | No amorphous content was detected | 1.43 μm | 3.28 μm | –
glycopyrronium bromide [Example 6] | – | no agglomerated material was observed | – | – | No amorphous content was detected | 1.48 μm | 3.11 μm | –
glycopyrronium bromide [Example 2] | – | no agglomerated material was observed | – | – | No amorphous content was detected | 1.45 μm | 3.39 μm | –
glycopyrronium bromide [Example 4] | – | no agglomerated material was observed | – | – | No amorphous content was detected | 1.45 μm | 3.26 μm | –
C[N+]1(C)CC[C@@H](OC(=O)[C@@](O)(c2ccccc2)C2CCCC2)C1 (racemic) [Glycopyrronium bromide, (3RS)-3-[(2SR)-(2-cyclopentyl-2-hydroxy-2-phenylacetyl)oxy]-1,1-dimethylpyrrolidinium bromide] | – | – | – | – | – | – | – | completely ionized
